Consider ten molecules from ChEMBL document CHEMBL1201862, “PubChem BioAssay data set” (2004).

What all share (assay): inhibition of tumour cell growth, NCI panel, 48 h
For assay [1], the system named is MCF7.
Assay [2] relates to SNB-19.
The test system of assay [3] is TK-10.
Assay [4] concerns DU-145.
For assay [5], the system named is A498.
Assay [6] deals with OVCAR-3.
Assay [7] has as its system SR.
The test system of assay [8] is Hs-578T.
Assay [9] concerns RPMI-8226.
The test system of assay [10] is NCI-H226.
Assay [11] deals with SW-620.
The test system of assay [12] is SK-MEL-2.
Assay [13] has as its system NCI-H460.
The subject of assay [14] is MDA-MB-231.
For assay [15], the system named is HCT-116.
The test system of assay [16] is COLO 205.
Assay [17] concerns HCT-15.
Assay [18] concerns SNB-75.
In assay [19] the test system is EKVX.
The test system of assay [20] is BT-549.

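Five compound concentrations were applied to cells in 96-well plates for 48 hours; endpoints were derived by simple linear interpolation of the resulting dose-response curve. GI50 is the concentration that inhibits growth by half.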 Calls of active or inactive are those of the source. No stated cut-off is given here; in the data, active = GI50 up to about 1.1 µM and inactive = higher.

Take `COC(=O)CCC(=O)NC1=C(Nc2ccccc2)C(=O)c2ccccc2C1=O`: the GI50 in assay [1] was 3.89 µM (inactive); in assay [2] it was 17.2 µM (inactive); in assay [3], 22.5 µM (inactive); in assay [4] it was 10.8 µM (inactive); in [5], 15 µM (inactive); in assay [6], 2.94 µM (inactive). In addition, the GI50 was 11.4 µM (inactive) in assay [7]; 7.18 µM (inactive) in [8]; 13.2 µM (inactive) in assay [9]; 14.6 µM (inactive) in assay [10]; 11.4 µM (inactive) in [11]; 5.57 µM (inactive) in assay [12]. Moreover, the GI50 in [13] is 15.3 µM (inactive); in [14], 9.66 µM (inactive); in [15] it was 9.71 µM (inactive); in assay [16], 16.7 µM (inactive); in [17], 11.2 µM; in assay [18] it was 18.3 µM (inactive). Further, the GI50 in assay [19] was 16.6 µM (inactive); in [20], 10.6 µM (inactive).

`COc1ccc2cc1Oc1ccc(cc1)C(Sc1ccccc1)CCOC(=O)CC2` (stereo unspecified): the GI50 in assay [1], in assay [2], in [3], in assay [4], in assay [5] and in [6] was > 100 µM (inactive) throughout. Moreover, the GI50 in assay [7] was > 100 µM (inactive); in assay [8], > 100 µM (inactive); in assay [9], 13.4 µM (inactive); in [10] it was > 100 µM (inactive); in assay [11] it was > 100 µM (inactive); in assay [12] it was > 100 µM (inactive). Further, the GI50 in assay [14] was 54 µM (inactive); in assay [15], > 100 µM (inactive); in assay [16], > 100 µM (inactive); in [17], 18.1 µM; in assay [18] it was > 100 µM (inactive); in assay [19], > 100 µM (inactive). Also, the GI50 in assay [20] is > 100 µM (inactive).

In the case of `C1=N\CCNCC/N=C/c2ccccc2OCc2cccc(n2)COc2ccccc2/1`, the GI50 in [1] was 4.13 µM (inactive); in [2] it was > 22.4 µM (inactive); in assay [3] it was 20.7 µM (inactive); in assay [4], 26.3 µM (inactive); in [5], > 100 µM (inactive); in assay [6], 23.8 µM (inactive). For the same molecule, the GI50 is 4.06 µM (inactive) in assay [7]; 9.51 µM (inactive) in assay [8]; 3.77 µM (inactive) in assay [9]; 26.3 µM (inactive) in assay [10]; 7.05 µM (inactive) in [11]; > 44.5 µM (inactive) in assay [12]. For the same molecule, the GI50 in assay [13] was 33.1 µM (inactive); in [14] it was 22.2 µM (inactive); in assay [15], 3.57 µM (inactive); in assay [16], > 56.8 µM (inactive); in [17], 4.69 µM; in [18], 9.46 µM (inactive). For the same molecule, the GI50 in assay [19] was 35.5 µM (inactive); in [20], 12 µM (inactive).

Consider `Cc1c(/C=N/NC(=S)Nc2cccc(Cl)c2)c(=O)n(-c2ccccc2)n1C`, for which the GI50 in [1] is 24.2 µM (inactive); in assay [2] it was 19.1 µM (inactive); in assay [3], 16.6 µM (inactive); in [4], 24.1 µM (inactive); in assay [5] it was 3.14 µM (inactive); in assay [7], 50.1 µM (inactive). Besides, the GI50 was 13.9 µM (inactive) in assay [8]; 40.9 µM (inactive) in [9]; 13.8 µM (inactive) in [10]; 51.2 µM (inactive) in [11]; 18.6 µM (inactive) in [12]; 9.4 µM (inactive) in [13]. Also, the GI50 in [14] is 17.6 µM (inactive); in assay [15] it was 34 µM (inactive); in assay [16], 96.6 µM (inactive); in assay [17] it was 3.91 µM; in assay [18] it was 15 µM (inactive); in [19], 6.65 µM (inactive). In addition, the GI50 in assay [20] is 21.4 µM (inactive).

Take `COc1ccc(C(=O)Cn2c(C(=O)/C=C/c3ccco3)nc3ccccc32)cc1`: the GI50 in [1] is 19.4 µM (inactive); in assay [2], 39.2 µM (inactive); in assay [3], 44.8 µM (inactive); in [4], 38.5 µM (inactive); in assay [5], 35.5 µM (inactive); in assay [6], 24.9 µM (inactive). Also, the GI50 in assay [7] was 10 µM (inactive); in assay [8], 25.3 µM (inactive); in assay [9], 19.3 µM (inactive); in assay [10], 50.9 µM (inactive); in assay [11] it was 31.4 µM (inactive); in assay [12], 17.5 µM (inactive). In addition, the GI50 in assay [13] was 23.5 µM (inactive); in assay [14], 28.7 µM (inactive); in [15], 29.3 µM (inactive); in assay [16], 21.7 µM (inactive); in assay [17], 33.3 µM; in assay [18] it was 76.6 µM (inactive). The GI50 in assay [20] was 34.4 µM (inactive).

Regarding `C=C1C(=O)C[C@H]2C(=C)C(=O)O[C@@H]2C2C1CC[C@@]2(C)O` (stereo partly specified), the GI50 in [1] was 16 µM (inactive); in assay [2] it was > 100 µM (inactive); in assay [3], 21.1 µM (inactive); in assay [4] it was 73.3 µM (inactive); in assay [5], > 100 µM (inactive); in assay [6], 16.1 µM (inactive). Further, the GI50 is 27.1 µM (inactive) in [7]; 26.9 µM (inactive) in [8]; 7.98 µM (inactive) in [9]; 22.2 µM (inactive) in [10]; 23 µM (inactive) in assay [11]; 21.5 µM (inactive) in assay [12]. Besides, the GI50 is 18.8 µM (inactive) in [13]; 25.1 µM (inactive) in assay [14]; 31.8 µM (inactive) in assay [15]; 14.5 µM (inactive) in assay [16]; 17.7 µM in [17]; > 100 µM (inactive) in assay [18]. The GI50 is 62.8 µM (inactive) in [19] and 19.8 µM (inactive) in assay [20].

As for `COC(=O)/N=[N+](\[O-])C(c1ccccc1)c1ccccc1`, the GI50 was > 100 µM (inactive) in assay [1]; > 100 µM (inactive) in [2]; > 100 µM (inactive) in [3]; 42.6 µM (inactive) in assay [4]; > 100 µM (inactive) in assay [5]; 98.9 µM (inactive) in assay [6]. Moreover, the GI50 was > 100 µM (inactive) in assay [7]; > 100 µM (inactive) in assay [8]; 38.5 µM (inactive) in assay [9]; 38.6 µM (inactive) in assay [10]; > 100 µM (inactive) in assay [11]; 43.2 µM (inactive) in assay [12]. Further, the GI50 in assay [13] was > 100 µM (inactive); in [14], > 100 µM (inactive); in assay [15] it was > 100 µM (inactive); in assay [16] it was 76.2 µM (inactive); in assay [17], 89.7 µM; in assay [18] it was 82.4 µM (inactive). The figures for the GI50 in [19] and in assay [20] were 27.6 µM (inactive) and > 100 µM (inactive), respectively.

`N#C[BH2-][n+]1cn(C2CC(OP(=O)(O)OCC3OC(n4cnc5c(N)ncnc54)CC3O)C(CO)O2)c2nc(N)[nH]c(=O)c21` (stereo unspecified): the GI50 in [1], in assay [2], in [3], in assay [4], in assay [5] and in assay [6] was > 100 µM (inactive) throughout. Moreover, the GI50 in assay [7], in [8], in assay [9], in assay [10], in assay [11] and in [12] was > 100 µM (inactive) throughout. The GI50 in assay [13] was > 100 µM (inactive); in assay [14] it was > 100 µM (inactive); in assay [15], > 100 µM (inactive); in assay [16] it was > 100 µM (inactive); in assay [17] it was greater than 100 µM; in assay [18] it was > 100 µM (inactive). Further, the GI50 in [19] and in assay [20] was > 100 µM (inactive) each time.

As for `SC1=Nc2ccccc2-c2nc(-c3cccc(Cl)c3)cc(-c3ccccc3)c2C1`, the GI50 was 5.04 µM (inactive) in assay [1]; 1.2 µM (inactive) in assay [2]; 5.36 µM (inactive) in assay [4]; 2.02 µM (inactive) in assay [5]; 3.4 µM (inactive) in [6]; 11.2 µM (inactive) in [7]. Besides, the GI50 in [8] was 2.05 µM (inactive); in [9], 3.2 µM (inactive); in assay [10] it was 3.68 µM (inactive); in assay [11], 2.98 µM (inactive); in assay [12] it was 5.25 µM (inactive); in [13] it was 1.3 µM (inactive). Also, the GI50 in assay [14] was 1.64 µM (inactive); in [15], 1.64 µM (inactive); in assay [16], 7.82 µM (inactive); in assay [17] it was 7.08 µM; in assay [18] it was 1.83 µM (inactive); in assay [19], 3.54 µM (inactive). Moreover, in assay [20], the GI50 was 5 µM (inactive).

For the molecule `COc1ccc(C(=O)c2sc(Nc3ccc(Cl)cc3)nc2N)cc1`, the GI50 in assay [1] was 4.45 µM (inactive); in assay [2], 17.2 µM (inactive); in assay [3], 10.1 µM (inactive); in assay [4], 25 µM (inactive); in assay [5], 17 µM (inactive); in [6], 8.85 µM (inactive). The GI50 in [7] was 1.93 µM (inactive); in [8], 11.2 µM (inactive); in [9], 4.16 µM (inactive); in assay [10] it was 29.6 µM (inactive); in assay [11] it was 5.71 µM (inactive); in [12], 17 µM (inactive). Also, the GI50 in assay [13] was 4.31 µM (inactive); in [14], 26.3 µM (inactive); in assay [15] it was 7.66 µM (inactive); in assay [16], > 21.2 µM (inactive); in [17] it was 3.27 µM; in assay [18], 2.79 µM (inactive). The figures for the GI50 in assay [19] and in assay [20] were 32.8 µM (inactive) and > 38.5 µM (inactive), respectively.
